Measured values from US20080063628A1, “METHODS TO PROMOTE CELL DIFFERENTIATION” (priority 2006, published 2008).

Assays:
Assay in all cases: Two high dose trichostatin A treatments (first 48 h), gene expression by RT-PCR (Example 9);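 on Gata-1 RT-PCR detection cycle: lower cycle number means higher gene expression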;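 on HNF-3 beta RT-PCR detection cycle: lower cycle number means higher gene expression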;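 on glucagon RT-PCR detection cycle: lower cycle number means higher gene expression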
Format in all cases: cell-based, human
[1] = test system: second amniotic fluid-derived cell line; conditions: for Gata1 gene expression / HNF-3 beta gene expression / Insulin gene expression / Pdx-1 gene expression / sox17 gene expression: 1.25 μM 0-48 h + 96-120 h;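 on Gata-1 RT-PCR detection cycle: lower cycle number means higher gene expression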;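 on HNF-3 beta RT-PCR detection cycle: lower cycle number means higher gene expression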
Method: (§1) Several cell lines obtained from different amniotic fluid specimens (see Example 14) and pancreas donors (see Example 13) were tested with similar results. Two lines at similar passage number but derived from different amniotic fluid specimens are shown in Table VIII-A and Table VIII-B for this example. One of these cell lines was also used in examples 2 and 4 above. In addition, this example also contains comparison data in Table VIII-C and Table VIII-D for a single pancreatic-derived stromal line grown to early and late passage number.
(§2) Amniotic fluid derived cells or pancreatic-derived stromal cells were seeded into 24-well tissue culture plates at a density of 5000/cm^2 and cultured in AMNIOMAX (Invitrogen) or DMEM with 10% FBS respectively under standard cell culture conditions until confluent. After reaching confluence, amniotic fluid derived cells were treated at time 0 hours with a dose of 1.25 μM trichostatin A, and pancreatic-derived stromal cells were treated with a dose of 5.0 μM trichostatin A solubilized in DMSO and medium. At time 48 hours, cell cultures underwent a complete medium change to remove all traces of trichostatin A. At time 96 hours, cell cultures were re-fed with fresh medium and received a second dose of trichostatin A at the same concentration as used previously. At time 120 hours, cell cultures again underwent a complete medium change and were cultured for an additional 24 hours or […] total incubation time. Samples were taken for RT-PCR at the times indicated in Table IX-A to D. RNA samples were obtained daily from the start of the experiment. Culture medium was removed, and cells were washed with PBS then collected in RLT with β-mercaptoethanol (Qiagen). RNA was purified using the RNeasy Mini Kit (Qiagen) and RNA quantity and quality was determined using a spectrophotometer. cDNA was made using the iScript cDNA synthesis kit (BioRad). Human pancreas cDNA was included as a control. Results were normalized against GAPDH expression levels.
(§3) Gene expression levels of Sox17, HNF-3 beta, Pdx-1, insulin, and glucagon were analyzed in amniotic-derived cells, while expression levels of glucagon, insulin, HNF-3 beta, and Pdx-1 were analyzed in pancreas-derived cells. Samples of 20 ng cDNA was used in each Real-Time PCR reaction. RT-PCR was performed on the Applied Biosystems 7500, according to the methods described in Example 15. The data were analyzed using the accompanying software.
(§4) Real-time PCR amplifcation and quantitative analysis. Unless otherwise stated, all reagents were purchased from Applied Biosystems. Real-time PCR reactions were performed using the ABI PRISM™ 7500 Sequence Detection System. TAQMAN™ FAST UNIVERSAL PCR MASTER MIX™ (ABI, CA) was used with 20 ng of reverse transcribed RNA in a total reaction volume of 20 μl. Each cDNA sample was run in duplicate to allow correction of pipetting errors. Primers and FAM-labeled TAQMAN™ probes were used at concentrations of 200 nM. The level of expression for each target gene was normalized using the pre-developed Applied Biosystem's human glyceraldehyde-3-phosphate dehydrogenase (GAPDH) endogenous control kit. Primers and probes were designed using either ABI PRISM PRIMER EXPRESS™ software or a pre-developed ABI gene analysis kit. For each gene, either one of the primers or the probe were designed to be exon-boundary spanning. This eliminated the possibility of the primers/probe binding to any genomic DNA present. The primer and probe sets are listed as follows: Pdx-1 (Hs00426216), Insulin (Hs00355773), glucagon (Hs00174967), and FoxA2 (HNF 3-beta) (Hs00232764). The remaining primers were designed using the PRIMERS program (ABI, CA). After an initial 95° C. incubation for 20 sec, samples were cycled 40 times in two stages: a denaturation step at 95° C. for 3 sec, followed by an annealing/extension step at 60° C. for 30 sec. […]

[2] = test system: late passage (P11) pancreatic-derived stromal cell line; conditions: for HNF-3 beta gene expression / Insulin gene expression / Pdx-1 gene expression / glucagon gene expression: 5 μM 0-48 h + 96-120 h; for HNF-3 beta RT-PCR detection cycle / Pdx-1 RT-PCR detection cycle / glucagon RT-PCR detection cycle: 5.0 μM;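 on HNF-3 beta RT-PCR detection cycle: lower cycle number means higher gene expression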;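 on glucagon RT-PCR detection cycle: lower cycle number means higher gene expression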
Method: as §1, §2, §3, §4

[3] = test system: second amniotic fluid-derived cell line; conditions: 1.25 μM, following first treatment;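 on Gata-1 RT-PCR detection cycle: lower cycle number means higher gene expression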;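 on HNF-3 beta RT-PCR detection cycle: lower cycle number means higher gene expression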
[4] = 1.25 μM, following the second treatment
[5] = for 48 hours following addition
[6] = once trichostatin A was added again

## CC(/C=C/C(=O)NO)=C\[C@@H](C)C(=O)c1ccc(N(C)C)cc1 [trichostatin A]
[1]; 24 hrs
  Gata1 gene expression: + (detectable between 35 and 40 cycles by RT-PCR)
  HNF-3 beta gene expression: +++ (detectable at less than 35 cycles by RT-PCR with SE less than 0.9)
  Insulin gene expression: nd (not detectable at >40 cycles by RT-PCR)
  Pdx-1 gene expression: ++ (detectable at less than 35 cycles by RT-PCR with SE greater than 0.9)
  sox17 gene expression: +++ (detectable at less than 35 cycles by RT-PCR with SE less than 0.9)
[1]; 48 hrs
  Gata1 gene expression: nd (not detectable at >40 cycles by RT-PCR)
  HNF-3 beta gene expression: +++ (detectable at less than 35 cycles by RT-PCR with SE less than 0.9)
  Insulin gene expression: nd (not detectable at >40 cycles by RT-PCR)
  Pdx-1 gene expression: + (detectable between 35 and 40 cycles by RT-PCR)
  sox17 gene expression: +++ (detectable at less than 35 cycles by RT-PCR with SE less than 0.9)
[1]; 72 hrs
  Gata1 gene expression: nd (not detectable at >40 cycles by RT-PCR)
  HNF-3 beta gene expression: +++ (detectable at less than 35 cycles by RT-PCR with SE less than 0.9)
  Insulin gene expression: nd (not detectable at >40 cycles by RT-PCR)
  Pdx-1 gene expression: nd (not detectable at >40 cycles by RT-PCR)
  sox17 gene expression: +++ (detectable at less than 35 cycles by RT-PCR with SE less than 0.9)
[1]; 96 hrs
  Gata1 gene expression: nd (not detectable at >40 cycles by RT-PCR)
  HNF-3 beta gene expression: + (detectable between 35 and 40 cycles by RT-PCR)
  Insulin gene expression: nd (not detectable at >40 cycles by RT-PCR)
  Pdx-1 gene expression: nd (not detectable at >40 cycles by RT-PCR)
  sox17 gene expression: +++ (detectable at less than 35 cycles by RT-PCR with SE less than 0.9)
[1]; 120 hrs
  Gata1 gene expression: + (detectable between 35 and 40 cycles by RT-PCR)
  HNF-3 beta gene expression: +++ (detectable at less than 35 cycles by RT-PCR with SE less than 0.9)
  Insulin gene expression: nd (not detectable at >40 cycles by RT-PCR)
  Pdx-1 gene expression: +++ (detectable at less than 35 cycles by RT-PCR with SE less than 0.9)
  sox17 gene expression: +++ (detectable at less than 35 cycles by RT-PCR with SE less than 0.9)
[1]; 1.25 μM, by 96 hours
  HNF-3 beta RT-PCR detection cycle: 37 cycles
[1]; 1.25 μM, first 72 hours
  HNF-3 beta RT-PCR detection cycle: 34 cycles
[1]; 1.25 μM, following the initial 48-hour treatment
  Pdx-1 RT-PCR detection cycle: 35 cycles
[1]; [4]
  Gata-1 RT-PCR detection cycle: 38 cycles
  HNF-3 beta RT-PCR detection cycle: 33 cycles
  Pdx-1 RT-PCR detection cycle: 34 cycles
[2]; 24 hrs
  HNF-3 beta gene expression: +++ (detectable at less than 35 cycles by RT-PCR with SE less than 0.9)
  Insulin gene expression: nd (not detectable at >40 cycles by RT-PCR)
  Pdx-1 gene expression: + (detectable between 35 and 40 cycles by RT-PCR)
  glucagon gene expression: +++ (detectable at less than 35 cycles by RT-PCR with SE less than 0.9)
[2]; 48 hrs
  HNF-3 beta gene expression: +++ (detectable at less than 35 cycles by RT-PCR with SE less than 0.9)
  Insulin gene expression: nd (not detectable at >40 cycles by RT-PCR)
  Pdx-1 gene expression: +++ (detectable at less than 35 cycles by RT-PCR with SE less than 0.9)
  glucagon gene expression: +++ (detectable at less than 35 cycles by RT-PCR with SE less than 0.9)
[2]; 72 hrs
  HNF-3 beta gene expression: nd (not detectable at >40 cycles by RT-PCR)
  Insulin gene expression: nd (not detectable at >40 cycles by RT-PCR)
  Pdx-1 gene expression: nd (not detectable at >40 cycles by RT-PCR)
  glucagon gene expression: + (detectable between 35 and 40 cycles by RT-PCR)
[2]; 96 hrs
  HNF-3 beta gene expression: nd (not detectable at >40 cycles by RT-PCR)
  Insulin gene expression: nd (not detectable at >40 cycles by RT-PCR)
  Pdx-1 gene expression: nd (not detectable at >40 cycles by RT-PCR)
  glucagon gene expression: nd (not detectable at >40 cycles by RT-PCR)
[2]; 120 hrs
  HNF-3 beta gene expression: +++ (detectable at less than 35 cycles by RT-PCR with SE less than 0.9)
  Insulin gene expression: + (detectable between 35 and 40 cycles by RT-PCR)
  Pdx-1 gene expression: +++ (detectable at less than 35 cycles by RT-PCR with SE less than 0.9)
  glucagon gene expression: + (detectable between 35 and 40 cycles by RT-PCR)
[2]; after addition
  HNF-3 beta RT-PCR detection cycle: 32 cycles
  Pdx-1 RT-PCR detection cycle: 31 cycles
[2]; after addition (for 48 hours)
  glucagon RT-PCR detection cycle: 33 cycles
[2]; following the removal
  glucagon RT-PCR detection cycle: 37 cycles
[2]; [5]
  HNF-3 beta RT-PCR detection cycle: 33 cycles
  Pdx-1 RT-PCR detection cycle: 32 cycles
[2]; [6]
  HNF-3 beta RT-PCR detection cycle: 34 cycles
  Pdx-1 RT-PCR detection cycle: 33 cycles
[2]; second treatment
  glucagon RT-PCR detection cycle: 35 cycles
[3]
  Gata-1 RT-PCR detection cycle: 38 cycles
